Laboratory results as given in PubChem BioAssay (NCI).
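Briefly, cells in 96-well plates were exposed to five compound concentrations for 48 h, and endpoints were estimated by linear interpolation. GI50: concentration for 50% inhibition of growth. TGI denotes the concentration required for complete inhibition of growth.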

How the values were obtained:
Experiment in all cases: NCI tumour cell line growth inhibition, 48 h
A549 NSCLC = system: A549 NSCLC
MOLT-4 leukemia = system: MOLT-4 leukemia
SNB-19 CNS = system: SNB-19 CNS
SF-539 CNS = system: SF-539 CNS
LOX IMVI melanoma = system: LOX IMVI melanoma
CAKI-1 renal = system: CAKI-1 renal
HCT-15 colon = system: HCT-15 colon
NCI-H226 lung = system: NCI-H226 lung
MDA-MB-231 breast = system: MDA-MB-231 breast
SNB-75 CNS = system: SNB-75 CNS
MDA-MB-435 = system: MDA-MB-435

SMILES	TGI (A549 NSCLC) [µM]	TGI (MOLT-4 leukemia) [µM]	TGI (SNB-19 CNS) [µM]	TGI (SF-539 CNS) [µM]	TGI (LOX IMVI melanoma) [µM]	TGI (CAKI-1 renal) [µM]	TGI (HCT-15 colon) [µM]	TGI (NCI-H226 lung) [µM]	TGI (MDA-MB-231 breast) [µM]	TGI (SNB-75 CNS) [µM]	TGI (MDA-MB-435) [µM]	GI50 (NCI-H226 lung) [µM]	GI50 (MDA-MB-231 breast) [µM]
C#C[C@]1(O)CC[C@H]2[C@@H]3CCC4=C/C(=N\OCCN5CCCC5)CC[C@]4(C)[C@H]3CC[C@@]21C	> 59.8	17.9	32.2	28.2	33	39.1	35	55.5	36.2	24.7	15	–	–
COc1ccc2c(c1)/C(=C\c1cccc(/C=C3/C(=O)Nc4ccc(OC)cc43)n1)C(=O)N2	> 100	0.802	3.38	5.7	1.24	5.62	> 25.1	4.16	4.78	> 100	6.81	1.54	0.873
O=Cc1ccc2c(c1)CC1(C2)Cc2ccc(C=O)cc2C1	> 95.3	7.11	89.2	15.1	21.8	> 100	> 46.6	62.6	34.1	> 100	6.15	–	–
COc1cc(C2S/C(=C/c3ccccc3)C(=O)N2c2ccc([N+](=O)[O-])cc2)cc(OC)c1OC (centres undefined)	> 100	> 100	> 100	> 100	> 100	> 100	> 100	> 100	> 100	> 100	> 100	–	–
COc1ccc(CCN(C)C(=O)CC(C#N)(c2ccccc2)c2ccc(OC)c(OC)c2)cc1OC (centres undefined)	> 100	> 100	> 100	> 100	> 100	> 100	> 100	> 100	> 100	> 100	> 100	–	–
CC(C)(CCCCC(C)(C)NCC1COc2ccccc2O1)NCC1COc2ccccc2O1 (centres undefined)	> 10	> 10	> 10	3.34	> 10	> 10	> 10	> 10	> 10	> 10	3.6	–	–
CC(C)C(Cl)CC/C(CBr)=C(\Cl)CCl (centres undefined)	36.1	> 20.3	28.3	29.5	1.2	17.9	10.4	22.2	8.36	17	10	–	–
